Experimental data: PMC7939570, “Discovery of potent histone deacetylase inhibitors with modified phenanthridine caps” (Journal of Enzyme Inhibition and Medicinal Chemistry, 2021)

Legend:
[1] = test system: U266 cells; test: MTT antiproliferative assay, U266 cells; conditions: Homo sapiens, U-266, 48 h, read-out: U266 antiproliferative IC50
[2] = test system: K562 cells; test: MTT antiproliferative assay, K562 cells; conditions: Homo sapiens, K562, 48 h, read-out: K562 antiproliferative IC50
[3] = test system: HEPG2 cells; test: MTT antiproliferative assay, HEPG2 cells; conditions: Homo sapiens, HepG2, 48 h, read-out: HEPG2 antiproliferative IC50
[4] = test system: U937 cells; test: MTT antiproliferative assay, U937 cells; conditions: Homo sapiens; for IC50: U-937, 48 h, read-out: U937 antiproliferative IC50; for inhibition at 1 µM: U-937, read-out: U937 percentage inhibitory rate, 1 µM, U937 cells, MTT, mean of three experiments
[5] = test system: MCF-7 cells; test: MTT antiproliferative assay, MCF-7 cells; conditions: Homo sapiens, MCF7, 48 h, read-out: MCF-7 antiproliferative IC50
[6] = test system: Hela nucleus extract containing a mixture of HDAC isoforms; test: HDAC enzyme inhibitory assay with Hela nucleus extract; format: biochemical; conditions: 1 µM, mean of three experiments
Procedure: The HDAC enzyme inhibitory activities of synthesised compounds were investigated by utilising Hela nucleus extract containing a mixture of HDAC isoforms. Percentage inhibitory rate was used to determine the activity of tested compounds (Tables 1 and 2). The Fa series compounds were firstly synthesised for the activity screening. […] To investigate whether aromatic linker could improve the inhibitory activities, structural modifications were performed on current molecules.

[7] = test system: xenograft nude mice model; design: method as in PMID 31058081; conditions: in vivo; cited from earlier work
[8] = biological target: T1, HDAC6 (Homo sapiens, UniProt Q9UBN7); test: HDAC isoform inhibitory assay, HDAC6
T1 sequence (Q9UBN7 1-1215): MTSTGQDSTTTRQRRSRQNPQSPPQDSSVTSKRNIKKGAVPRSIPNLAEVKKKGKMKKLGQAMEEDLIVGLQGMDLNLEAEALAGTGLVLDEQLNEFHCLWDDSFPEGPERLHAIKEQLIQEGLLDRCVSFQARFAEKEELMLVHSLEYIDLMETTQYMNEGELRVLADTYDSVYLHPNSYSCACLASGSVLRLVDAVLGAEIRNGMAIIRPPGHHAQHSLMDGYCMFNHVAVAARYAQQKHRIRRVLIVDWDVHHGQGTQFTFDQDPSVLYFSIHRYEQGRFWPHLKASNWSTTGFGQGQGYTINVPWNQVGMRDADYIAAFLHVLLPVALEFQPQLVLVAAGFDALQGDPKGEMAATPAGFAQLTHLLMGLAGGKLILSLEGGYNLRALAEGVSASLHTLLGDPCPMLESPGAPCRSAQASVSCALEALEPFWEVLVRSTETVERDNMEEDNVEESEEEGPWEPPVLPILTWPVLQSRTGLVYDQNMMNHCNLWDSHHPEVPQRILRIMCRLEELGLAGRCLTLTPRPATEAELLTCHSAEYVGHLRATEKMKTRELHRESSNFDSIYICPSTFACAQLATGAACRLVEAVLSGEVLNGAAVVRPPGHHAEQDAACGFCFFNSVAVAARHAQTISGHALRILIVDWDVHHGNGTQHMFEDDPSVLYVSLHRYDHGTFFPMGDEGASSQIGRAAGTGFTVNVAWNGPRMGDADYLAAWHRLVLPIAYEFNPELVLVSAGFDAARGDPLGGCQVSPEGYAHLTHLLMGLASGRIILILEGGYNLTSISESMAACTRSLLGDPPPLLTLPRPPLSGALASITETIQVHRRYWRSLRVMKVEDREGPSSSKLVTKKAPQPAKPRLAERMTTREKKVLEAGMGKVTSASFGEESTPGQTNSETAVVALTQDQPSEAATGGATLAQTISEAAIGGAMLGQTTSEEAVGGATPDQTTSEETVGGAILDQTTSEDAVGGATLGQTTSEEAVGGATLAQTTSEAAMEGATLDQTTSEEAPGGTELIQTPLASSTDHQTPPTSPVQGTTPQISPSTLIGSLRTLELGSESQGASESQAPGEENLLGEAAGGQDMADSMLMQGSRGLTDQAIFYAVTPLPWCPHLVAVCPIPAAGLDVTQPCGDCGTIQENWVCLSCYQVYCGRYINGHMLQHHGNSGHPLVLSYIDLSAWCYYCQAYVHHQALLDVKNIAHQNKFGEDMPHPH
Procedure: (§1) All HDAC enzymes were purchased from BPS Bioscience. In short, 60 μL of recombinant HDAC enzyme solution was mixed with various concentrations of test compound (40 μL), and then incubated at 37 °C for 30 min. The reaction was terminated by adding 100 μL of imaging agent containing trypsin and trichostatin A (TSA). After standing for 20 min, the fluorescence intensity was measured at the excitation and emission wavelengths of 360 and 460 nm with a microplate reader. The inhibition rate was calculated from the fluorescence intensity readings of the test wells relative to the control wells, and the IC50 curve and value were determined by GraphPad Prism 6.0 software.

[9] = biological target: HDAC2 (Homo sapiens, UniProt Q92769); test: HDAC isoform inhibitory assay, HDAC2
Procedure: as §1

[10] = test system: MCF-7 cells; test: Cell apoptosis assay (Annexin V-FITC/PI, flow cytometry); conditions: 24 h, control 9.16%
Procedure: After incubating for 15 min, add 10 µL of PI to each sample and mix gently, and incubate for 5 min at 2–8 °C under dark conditions, and detect with a flow cytometer.

[11] = test system: MCF-7 cells; test: Cell cycle assay (PI, flow cytometry); conditions: 24 h
Procedure: After staining, the cell cycle distribution was determined by flow cytometry within 24 h.

[12] = biological target: T2, HDAC8 (Homo sapiens, UniProt Q9BY41); test: HDAC isoform inhibitory assay, HDAC8
T2 sequence (Q9BY41 1-377): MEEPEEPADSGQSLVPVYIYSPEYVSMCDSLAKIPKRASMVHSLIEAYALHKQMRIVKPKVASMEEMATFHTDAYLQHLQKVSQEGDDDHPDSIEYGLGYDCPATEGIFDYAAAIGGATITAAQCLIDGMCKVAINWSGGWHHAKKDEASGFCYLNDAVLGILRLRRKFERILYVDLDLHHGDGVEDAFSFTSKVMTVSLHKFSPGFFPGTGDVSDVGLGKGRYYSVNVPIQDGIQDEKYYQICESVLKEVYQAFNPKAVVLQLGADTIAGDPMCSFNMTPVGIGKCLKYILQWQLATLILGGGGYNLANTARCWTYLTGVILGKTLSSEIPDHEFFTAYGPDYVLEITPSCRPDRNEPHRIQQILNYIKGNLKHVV
Procedure: as §1

[13] = biological target: HDAC3 (Homo sapiens, UniProt O15379); test: HDAC isoform inhibitory assay, HDAC3
Procedure: as §1

[14] = biological target: HDAC1 (Homo sapiens, UniProt Q13547); test: HDAC isoform inhibitory assay, HDAC1
Sequence of HDAC1 (Q13547 whole entry, canonical isoform): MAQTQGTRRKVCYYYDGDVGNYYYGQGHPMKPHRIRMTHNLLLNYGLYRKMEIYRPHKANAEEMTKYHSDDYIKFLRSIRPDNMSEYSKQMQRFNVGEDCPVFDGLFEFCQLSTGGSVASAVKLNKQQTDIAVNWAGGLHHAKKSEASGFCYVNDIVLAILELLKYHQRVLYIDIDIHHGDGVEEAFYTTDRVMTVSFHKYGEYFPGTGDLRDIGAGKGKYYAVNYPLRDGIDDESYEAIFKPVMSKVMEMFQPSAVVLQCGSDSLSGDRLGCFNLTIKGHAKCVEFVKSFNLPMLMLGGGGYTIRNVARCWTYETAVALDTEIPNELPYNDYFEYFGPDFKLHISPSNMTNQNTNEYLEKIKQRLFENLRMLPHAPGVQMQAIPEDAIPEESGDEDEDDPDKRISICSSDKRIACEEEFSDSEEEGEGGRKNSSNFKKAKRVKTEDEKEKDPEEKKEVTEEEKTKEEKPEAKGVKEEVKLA
Procedure: as §1

Sequence of HDAC3 (O15379 whole entry, canonical isoform): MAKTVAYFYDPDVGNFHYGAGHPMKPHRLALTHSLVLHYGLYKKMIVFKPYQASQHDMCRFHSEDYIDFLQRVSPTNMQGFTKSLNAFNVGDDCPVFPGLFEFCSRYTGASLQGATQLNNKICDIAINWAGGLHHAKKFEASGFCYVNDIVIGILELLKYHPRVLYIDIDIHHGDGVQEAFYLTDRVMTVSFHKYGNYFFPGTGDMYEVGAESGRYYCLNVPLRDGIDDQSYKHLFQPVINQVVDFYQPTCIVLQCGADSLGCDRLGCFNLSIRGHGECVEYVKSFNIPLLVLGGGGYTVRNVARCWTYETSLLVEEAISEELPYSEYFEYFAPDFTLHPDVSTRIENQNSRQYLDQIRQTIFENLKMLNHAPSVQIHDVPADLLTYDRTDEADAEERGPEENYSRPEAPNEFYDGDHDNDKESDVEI
Sequence of HDAC3 (Q9Y618 395-489 partner limits assumed): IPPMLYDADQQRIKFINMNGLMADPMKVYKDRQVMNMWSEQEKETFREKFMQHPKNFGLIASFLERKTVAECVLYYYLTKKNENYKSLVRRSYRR
Sequence of HDAC2 (Q92769 whole entry, canonical isoform): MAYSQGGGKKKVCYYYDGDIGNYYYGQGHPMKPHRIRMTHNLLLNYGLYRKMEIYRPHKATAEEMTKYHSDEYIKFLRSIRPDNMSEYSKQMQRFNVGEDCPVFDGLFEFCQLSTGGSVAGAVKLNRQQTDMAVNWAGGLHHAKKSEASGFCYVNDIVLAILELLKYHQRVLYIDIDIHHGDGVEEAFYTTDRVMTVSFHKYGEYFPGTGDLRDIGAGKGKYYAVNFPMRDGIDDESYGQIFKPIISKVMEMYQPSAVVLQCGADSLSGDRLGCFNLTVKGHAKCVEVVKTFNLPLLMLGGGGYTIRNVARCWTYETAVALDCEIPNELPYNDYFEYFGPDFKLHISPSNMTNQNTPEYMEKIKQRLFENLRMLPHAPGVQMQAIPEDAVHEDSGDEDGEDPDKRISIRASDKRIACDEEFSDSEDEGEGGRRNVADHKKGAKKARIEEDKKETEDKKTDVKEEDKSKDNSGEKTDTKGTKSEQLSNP

IC50 [1] [nM] | IC50 [2] [nM] | IC50 [3] [nM] | IC50 [4] [nM] | IC50 [5] [nM] | HDACs percentage inhibitory rate [6] [%] | SMILES | inhibition at 1 µM [4] [%] | other results
100 ± 20 | 470 ± 30 | 14900 ± 780 | 630 ± 20 | 530 ± 90 | 53.90 ± 1.82 | CCc1ccc(C(=O)Nc2cc3c(cc2-c2ccc(C(=O)NCc4ccc(C(=O)NO)cc4)cc2)OCO3)cc1 [Fb-3, 4-({4-[6–(4-Ethyl-benzoylamino)-benzo[1,3]dioxol-5-yl]-benzoylamino}-methyl)-N-Hydroxy-benzamide] | 96.05 ± 0.01 | 
90 ± 10 | 870 ± 10 | 17400 ± 630 | 340 ± 60 | 320 ± 40 | 66.54 ± 1.47 | O=C(NO)c1ccc(CNC(=O)c2ccc(-c3cc4c(cc3NC(=O)c3ccccc3F)OCO4)cc2)cc1 [Fb-4, 4-({4-[6–(2-Fluoro-benzoylamino)-benzo[1,3]dioxol-5-yl]-benzoylamino}-methyl)-N-Hydroxy-benzamide] | 95.9 ± 1.09 | IC50 [8]: 8.6 ± 1.3 nM; IC50 [9]: 21.5 ± 4.5 nM; percentage of apoptotic cells ([10]; 1 µM): 16.99%; percentage of apoptotic cells ([10]; 3 µM): 20.07%; percentage of apoptotic cells ([10]; 9 µM): 21.19%; cell percentage at G2/M phase ([11]; 1 µM): 17.46%; cell percentage at G2/M phase ([11]; 3 µM): 24.81%; cell percentage at G2/M phase ([11]; 9 µM): 41.71%; IC50 [12]: 304 ± 32.6 nM; IC50 [13]: 11 ± 2.8 nM; IC50 [14]: 12.1 ± 2.5 nM
140 ± 60 |  |  |  |  |  | O=C(CCCCCCC(=O)Nc1ccccc1)NO [SAHA, Vorinostat, reference compound] |  | percentage of apoptotic cells ([10]; 1 µM): 11.38%; percentage of apoptotic cells ([10]; 3 µM): 12.30%; percentage of apoptotic cells ([10]; 9 µM): 19.51%; cell percentage at G2/M phase ([11]; 1 µM): 15.39%; cell percentage at G2/M phase ([11]; 3 µM): 20.75%; cell percentage at G2/M phase ([11]; 9 µM): 38.48%

Second part, the molecule before the results:

SMILES | IC50 [1] [nM] | IC50 [2] [nM] | IC50 [3] [nM] | IC50 [4] [nM] | IC50 [5] [nM] | HDACs percentage inhibitory rate [6] [%] | inhibition at 1 µM [4] [%] | other results
COc1ccc(C(=O)Nc2cc3c(cc2-c2ccc(C(=O)NCc4ccc(C(=O)NO)cc4)cc2)OCO3)cc1 [Fb-2, 4-({4-[6–(4-Methoxy-benzoylamino)-benzo[1,3]dioxol-5-yl]-benzoylamino}-methyl)-N-Hydroxy-benzamide] | 90 ± 10 | 1190 ± 60 | 17900 ± 1040 | 920 ± 90 | 940 ± 20 | 52.30 ± 2.26 | 94.46 ± 0.41 | 
ClC(Cl)(Cl)c1nc2cc3c(cc2c2cc4c(cc12)OCO4)OCO3 [Compound 8a] |  |  |  |  |  |  |  | hepatotoxicity [7]: obvious hepatotoxicity
O=C(CCCNC(=O)c1ccc(-c2cc3c(cc2NC(=O)c2ccc(OC(F)(F)F)cc2)OCO3)cc1)NO [Fa-16, 4-{4-[6–(4-Trifluoromethoxy-benzoylamino)-benzo[1,3]dioxol-5-yl]-benzoylamino}-N-Hydroxy-butyramide] |  |  |  |  |  | 34.10 ± 1.02 | 16.1 ± 2.82 | 
O=C(CCCNC(=O)c1ccc(-c2cc3c(cc2NC(=O)c2ccc(F)cc2F)OCO3)cc1)NO [Fa-15, 4-{4-[6–(2,4-Difluoro-benzoylamino)-benzo[1,3]dioxol-5-yl]-benzoylamino}-N-Hydroxy-butyramide] |  |  |  |  |  | 19.51 ± 4.10 | 6.76 ± 0.26 | 
O=C(CCCNC(=O)c1ccc(-c2cc3c(cc2NC(=O)c2c(F)cccc2Cl)OCO3)cc1)NO [Fa-21, 4-{4-[6–(2-Chloro-6-fluoro-benzoylamino)-benzo[1,3]dioxol-5-yl]-benzoylamino}-N-Hydroxy-butyramide] |  |  |  |  |  | 15.58 ± 3.25 | 11.2 ± 1.01 | 
